Test results from patent US9062066B2, “Anti-inflammatory compound having inhibitory activity against multiple tyrosine kinases and pharmaceutical composition containing same” (KOREA INSTITUTE OF SCIENCE AND TECHNOLOGY, priority 2010, dated 2015).
Where two headings read alike, the source gives them in different places.

What was measured:
Lyn tyrosine kinase = Lyn tyrosine kinase (Homo sapiens (Human), UniProt P07948); test: in vitro Lyn tyrosine kinase inhibition; format: biochemical; conditions: read-out: % inhibition against Lyn
[1] = tested on: TNF-α synthesis in J744A.1 macrophages; test: inhibition of TNF-α synthesis in LPS-activated macrophages (ELISA); format: cell-based; conditions: Macrophage, read-out: Inhibition (%) of TNF-α synthesis
DDR1 tyrosine kinase = DDR1 tyrosine kinase (Homo sapiens (Human), UniProt Q08345); test: in vitro DDR1 tyrosine kinase inhibition (GST-fused kinase domain); format: biochemical; conditions: read-out: % inhibition against DDR1
[2] = tested on: NO synthesis in J744A.1 macrophage; test: inhibition of nitric oxide (NO) synthesis in LPS-activated macrophages (Griess reagent); format: cell-based; conditions: read-out: Inhibition (%) of NO synthesis
Fgr tyrosine kinase = Fgr tyrosine kinase (Homo sapiens (Human), UniProt P09769); test: in vitro Fgr tyrosine kinase inhibition; format: biochemical; conditions: read-out: % inhibition against Fgr
Hck tyrosine kinase = Hck tyrosine kinase (Homo sapiens (Human), UniProt P08631); test: in vitro Hck tyrosine kinase inhibition; format: biochemical; conditions: read-out: % inhibition against Hck
DDR2 tyrosine kinase = DDR2 tyrosine kinase (Homo sapiens (Human), UniProt Q16832); test: in vitro DDR2 tyrosine kinase inhibition (GST-fused kinase domain); format: biochemical; conditions: read-out: % inhibition against DDR2
c-Src tyrosine kinase = c-Src tyrosine kinase (Homo sapiens (Human), UniProt P12931); test: in vitro c-Src tyrosine kinase inhibition (32P-ATP, poly(D4Y)n substrate); format: biochemical; conditions: read-out: % inhibition against c-Src
[3] = 10 μM compound, 100 ng/ml LPS, 6 hours

Chain of Fgr tyrosine kinase (P09769 whole entry): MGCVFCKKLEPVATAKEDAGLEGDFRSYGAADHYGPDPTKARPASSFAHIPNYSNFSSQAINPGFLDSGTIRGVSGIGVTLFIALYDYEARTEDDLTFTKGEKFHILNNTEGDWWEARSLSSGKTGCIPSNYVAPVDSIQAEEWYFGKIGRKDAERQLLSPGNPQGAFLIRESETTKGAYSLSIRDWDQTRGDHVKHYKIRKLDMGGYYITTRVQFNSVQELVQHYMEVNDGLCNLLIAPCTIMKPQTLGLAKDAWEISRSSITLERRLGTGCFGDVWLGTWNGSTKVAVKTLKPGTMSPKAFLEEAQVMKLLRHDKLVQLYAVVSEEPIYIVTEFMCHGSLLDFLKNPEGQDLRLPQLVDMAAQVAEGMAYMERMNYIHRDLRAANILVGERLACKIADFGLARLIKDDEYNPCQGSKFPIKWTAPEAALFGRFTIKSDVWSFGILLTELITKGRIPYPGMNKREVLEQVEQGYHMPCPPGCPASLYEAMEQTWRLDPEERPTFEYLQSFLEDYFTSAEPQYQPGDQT
Chain of DDR1 tyrosine kinase (Q08345 610-905): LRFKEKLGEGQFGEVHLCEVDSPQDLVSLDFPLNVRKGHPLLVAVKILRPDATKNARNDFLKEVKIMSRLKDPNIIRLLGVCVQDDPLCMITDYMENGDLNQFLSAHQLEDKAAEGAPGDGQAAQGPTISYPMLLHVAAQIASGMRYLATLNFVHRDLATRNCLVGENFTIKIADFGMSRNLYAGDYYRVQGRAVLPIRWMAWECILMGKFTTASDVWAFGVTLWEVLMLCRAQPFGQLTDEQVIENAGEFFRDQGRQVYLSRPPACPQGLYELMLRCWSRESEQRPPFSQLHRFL
Chain of c-Src tyrosine kinase (P12931 whole entry, looked up): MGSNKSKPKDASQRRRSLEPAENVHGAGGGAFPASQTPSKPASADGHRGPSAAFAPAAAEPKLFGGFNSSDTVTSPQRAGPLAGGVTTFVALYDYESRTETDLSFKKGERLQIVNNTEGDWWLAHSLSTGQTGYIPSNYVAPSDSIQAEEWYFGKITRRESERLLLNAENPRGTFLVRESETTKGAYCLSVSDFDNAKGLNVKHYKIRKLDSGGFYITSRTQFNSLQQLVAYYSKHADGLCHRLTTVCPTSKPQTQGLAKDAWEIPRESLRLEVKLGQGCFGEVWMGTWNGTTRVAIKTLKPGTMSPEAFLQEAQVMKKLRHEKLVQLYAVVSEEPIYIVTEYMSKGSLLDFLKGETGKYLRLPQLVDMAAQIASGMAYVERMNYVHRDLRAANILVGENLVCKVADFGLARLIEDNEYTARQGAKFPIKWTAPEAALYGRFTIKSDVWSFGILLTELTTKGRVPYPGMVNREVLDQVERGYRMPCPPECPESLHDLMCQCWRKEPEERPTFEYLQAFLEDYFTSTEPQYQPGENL
Chain of DDR2 tyrosine kinase (Q16832 563-849): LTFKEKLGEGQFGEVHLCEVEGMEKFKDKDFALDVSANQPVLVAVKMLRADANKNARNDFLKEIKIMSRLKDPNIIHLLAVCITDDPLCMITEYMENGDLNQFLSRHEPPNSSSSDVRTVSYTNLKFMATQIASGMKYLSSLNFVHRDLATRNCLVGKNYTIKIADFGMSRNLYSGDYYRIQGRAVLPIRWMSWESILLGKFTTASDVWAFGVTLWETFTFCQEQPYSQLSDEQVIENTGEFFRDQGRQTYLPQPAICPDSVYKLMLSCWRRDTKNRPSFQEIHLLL
Chain of Lyn tyrosine kinase (P07948 whole entry): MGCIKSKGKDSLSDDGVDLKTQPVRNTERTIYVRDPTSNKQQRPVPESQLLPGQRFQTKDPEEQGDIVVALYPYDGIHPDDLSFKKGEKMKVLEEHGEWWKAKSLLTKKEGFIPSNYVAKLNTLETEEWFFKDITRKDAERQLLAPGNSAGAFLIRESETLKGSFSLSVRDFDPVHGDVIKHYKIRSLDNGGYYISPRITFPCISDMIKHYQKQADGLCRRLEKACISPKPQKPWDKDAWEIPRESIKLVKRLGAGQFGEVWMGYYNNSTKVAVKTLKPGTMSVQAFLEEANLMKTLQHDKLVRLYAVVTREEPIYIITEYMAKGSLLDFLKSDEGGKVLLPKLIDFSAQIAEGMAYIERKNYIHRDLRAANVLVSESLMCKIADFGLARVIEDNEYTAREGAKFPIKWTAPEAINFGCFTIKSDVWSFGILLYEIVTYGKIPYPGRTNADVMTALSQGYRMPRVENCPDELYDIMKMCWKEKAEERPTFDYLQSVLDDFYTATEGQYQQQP
Chain of Hck tyrosine kinase (P08631 whole entry, the tested form may be a part): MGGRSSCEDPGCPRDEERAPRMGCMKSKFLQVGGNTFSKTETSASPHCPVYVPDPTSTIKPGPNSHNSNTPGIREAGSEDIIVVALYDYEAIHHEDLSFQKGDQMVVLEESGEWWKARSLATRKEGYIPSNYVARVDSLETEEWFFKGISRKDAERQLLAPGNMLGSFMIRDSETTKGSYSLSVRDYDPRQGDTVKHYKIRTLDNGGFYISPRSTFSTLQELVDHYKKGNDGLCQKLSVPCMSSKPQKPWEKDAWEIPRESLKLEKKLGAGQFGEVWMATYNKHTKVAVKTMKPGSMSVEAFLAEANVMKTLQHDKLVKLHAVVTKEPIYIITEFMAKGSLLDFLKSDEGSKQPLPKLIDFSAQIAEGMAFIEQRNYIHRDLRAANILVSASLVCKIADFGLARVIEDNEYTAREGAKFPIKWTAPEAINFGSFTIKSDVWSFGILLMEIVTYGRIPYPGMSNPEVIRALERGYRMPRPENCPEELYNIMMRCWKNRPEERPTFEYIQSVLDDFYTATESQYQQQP

Row | SMILES | inhibition at 1 µM (Lyn tyrosine kinase; 1 uM compound) | inhibition at 10 µM [1, 3] | inhibition at 1 µM (DDR1 tyrosine kinase; 1 uM compound) | inhibition at 10 µM ([2]; 10 μM compound, LPS, 24 hours) | inhibition at 1 µM (Fgr tyrosine kinase; 1 uM compound) | inhibition at 1 µM (Hck tyrosine kinase; 1 uM compound) | inhibition at 1 µM (DDR2 tyrosine kinase; 1 uM compound) | inhibition at 1 µM (c-Src tyrosine kinase; 1 uM compound) | inhibition at 1 µM (Lyn tyrosine kinase) | inhibition at 10 µM ([1]; 6 h) | inhibition at 1 µM (DDR1 tyrosine kinase) | inhibition at 10 µM ([2]; 24 h) | inhibition at 1 µM (Fgr tyrosine kinase) | inhibition at 1 µM (Hck tyrosine kinase) | inhibition at 1 µM (DDR2 tyrosine kinase) | inhibition at 1 µM (c-Src tyrosine kinase)
1 | COc1cccc(Nc2ncnc3cc(-c4ccc(OCCN5CCOCC5)cc4)sc23)c1 [LCB 03-0018, N-(3-methoxyphenyl)-6-(4-(2-morpholinoethoxy)phenyl)thieno[3,2-d]pyrimidin-4-amine] | > 70% | 68% | > 70% | 89% | > 70% | > 70% | > 70% | > 70% |  |  |  |  |  |  |  | 
2 | O=C(c1cccc(-c2cc3ncnc(Nc4cccc(O)c4)c3s2)c1)N1CCCC1 [LCB 03-0053, (3-(4-(3-hydroxyphenylamino)thieno[3,2-d]pyrimidin-6-yl)phenyl)(pyrrolidin-1-yl)methanone] | > 70% | 83% | > 80% | 94% | > 70% | > 70% | > 80% | > 70% |  |  |  |  |  |  |  | 
3 | CCOCc1ccc(-c2cc3ncnc(Nc4cccc(O)c4)c3s2)cc1 [LCB 03-0073, 3-(6-(4-(ethoxymethyl)phenyl)thieno[3,2-d]pyrimidin-4-ylamino)phenol] | > 30% |  | > 80% | 85% | > 30% | > 30% | > 80% | > 30% |  |  |  |  |  |  |  | 
4 | O=C(Cc1ccc(-c2cc3ncnc(Nc4cccc(O)c4)c3s2)cc1)N1CCCC1 [LCB 03-0049, 2-(4-(4-(3-hydroxyphenylamino)thieno[3,2-d]pyrimidin-6-yl)phenyl)-1-(pyrrolidin-1-yl)ethanone] | > 40% | 57% | > 80% | 88% | > 40% | > 40% | > 80% | > 40% |  |  |  |  |  |  |  | 
5 | Oc1cccc(Nc2ncnc3cc(-c4cc(CN5CCCC5)cs4)sc23)c1 [LCB 03-0101, 3-(6-(4-(pyrrolidin-1-ylmethyl)thiophene-2-yl)thieno[3,2-d]pyrimidin-4-ylamino)phenol] |  |  |  |  |  |  |  |  | > 70% | 71% | > 70% | 76% | > 70% | > 70% | > 70% | > 70%
6 | CC1CCN(Cc2ccc(-c3cc4ncnc(Nc5cccc(O)c5)c4s3)cc2)CC1 [LCB 03-0058, 3-(6-(4-((4-methylpiperidin-1-yl)methyl)phenyl)thieno[3,2-d]pyrimidin-4-ylamino)phenol] | > 40% | 58% | > 80% | 80% | > 40% | > 40% | > 80% | > 40% |  |  |  |  |  |  |  | 
7 | Oc1cccc(Nc2ncnc3cc(-c4ccccc4)sc23)c1 [LCB 03-0008, 3-(6-phenylthieno[3,2-d]pyrimidin-4-ylamino)phenol] | > 70% | 67% | > 70% | 87% | > 70% | > 70% | > 70% | > 70% |  |  |  |  |  |  |  | 
8 | Oc1cccc(Nc2ncnc3cc(-c4ccc(N5CCOCC5)cc4)sc23)c1 [LCB 03-0082, 3-(6-(4-morpholinophenyl)thieno[3,2-d]pyrimidin-4-ylamino)phenol] | > 70% | 77% |  | 90% | > 70% | > 70% |  | > 70% |  |  |  |  |  |  |  | 
9 | CN1CCN(Cc2csc(-c3cc4ncnc(Nc5cccc(O)c5)c4s3)c2)CC1 [LCB 03-0102, 3-(6-(4-((4-methylpiperazin-1-yl)methyl)thiophene-2-yl)thieno[3,2-d]pyrimidin-4-ylamino)phenol] | > 60% |  | > 70% | 97% | > 60% | > 60% | > 70% | > 60% |  |  |  |  |  |  |  | 
10 | COc1ccc(-c2cc3ncnc(Nc4cccc(O)c4)c3s2)cc1 [LCB 03-0017, 3-[6-(4-Methoxy-phenyl)-thieno[3,2-d]pyrimidin-4-ylamino]-phenol] | > 60% |  | > 70% | 82% | > 60% | > 60% | > 70% | > 60% |  |  |  |  |  |  |  | 
11 | CN1CCN(C(=O)Cc2ccc(-c3cc4ncnc(Nc5cccc(O)c5)c4s3)cc2)CC1 [LCB 03-0047, 2-(4-(4-(3-hydroxyphenylamino)thieno[3,2-d]pyrimidin-6-yl)phenyl)-1-(4-methylpiperazin-1-yl)ethanone] | > 20% |  | > 70% |  | > 30% | > 30% | > 70% | > 30% |  |  |  | 56% |  |  |  | 
12 | Oc1cccc(Nc2ncnc3cc(-c4ccc(CCN5CCCC5)cc4)sc23)c1 [LCB 03-0043] | > 30% |  | > 80% | 66% | > 30% | > 30% | > 80% | > 30% |  |  |  |  |  |  |  | 
13 | CCNCc1csc(-c2cc3ncnc(Nc4cccc(O)c4)c3s2)c1 [LCB 03-0106, 3-(6-(4-((ethylamino)methyl)thiophene-2-yl)thieno[3,2-d]pyrimidin-4-ylamino)phenol] | > 70% | 63% | > 70% |  | > 70% | > 70% | > 70% | > 70% |  |  |  |  |  |  |  | 
14 | Oc1cccc(Nc2ncnc3cc(-c4cc(CN5CCCCC5)cs4)sc23)c1 [LCB 03-0103, 3-(6-(4-(piperidin-1-ylmethyl)thiophene-2-yl)thieno[3,2-d]pyrimidin-4-ylamino)phenol] | > 50% |  | > 70% |  | > 50% | > 50% | > 70% | > 50% |  |  |  |  |  |  |  | 
15 | COc1cccc(Nc2ncnc3cc(-c4cccs4)sc23)c1 [LCB 03-0027, N-(3-methoxyphenyl)-6-(thiophene-2-yl)thieno[3,2-d]pyrimidin-4-amine] | > 40% |  | > 70% |  | > 40% | > 40% | > 70% | > 40% |  |  |  |  |  |  |  | 
16 | Oc1cccc(Nc2ncnc3cc(-c4ccc(OCCN5CCOCC5)cc4)sc23)c1 [LCB 03-0020, 3-(6-(4-(2-morpholinoethoxy)phenyl)thieno[3,2-d]pyrimidin-4-ylamino)phenol] | > 70% |  | > 60% |  | > 70% | > 70% | > 60% | > 70% |  |  |  |  |  |  |  | 
17 | Oc1cccc(Nc2ncnc3cc(-c4ccc(CCN5CCOCC5)cc4)sc23)c1 [LCB 03-0046, 3-(6-(4-(2-morpholinoethyl)phenyl)thieno[3,2-d]pyrimidin-4-ylamino)phenol] | > 30% |  | > 80% |  | > 30% | > 30% | > 80% | > 30% |  |  |  |  |  |  |  | 
18 | Oc1cccc(Nc2ncnc3cc(Br)sc23)c1 [LCB 03-0015, 3-(6-Bromo-thieno[3,2-d]pyrimidin-4-ylamino)-phenol] | > 60% | 71% | > 20% |  | > 60% | > 60% | > 20% | > 60% |  |  |  |  |  |  |  | 
19 | COc1cccc(Nc2ncnc3cc(-c4ccc(OCCN5CCCC5)cc4)sc23)c1 [LCB 03-0026, N-(3-methoxyphenyl)-6-(4-(2-(pyrrolidin-1-yl)ethoxy)phenyl)thieno[3,2-d]pyrimidin-4-amine] | > 40% |  | > 20% |  | > 60% | > 60% | > 20% | > 60% |  |  |  |  |  |  |  | 
20 | CC(CO)NC(=O)c1ccc(-c2cc3ncnc(Nc4cccc(O)c4)c3s2)cc1 (stereo not shown) [LCB 03-0074, 4-(4-(3-hydroxyphenylamino)thieno[3,2-d]pyrimidin-6-yl)-N-(1-hydroxypropan-2-yl)benzamide] | > 30% |  | > 80% |  | > 30% | > 30% | > 80% | > 30% |  |  |  |  |  |  |  | 
21 | CC(NC(=O)c1ccc(-c2cc3ncnc(Nc4cccc(O)c4)c3s2)cc1)C(=O)O (stereo not shown) [LCB 03-0075, 2-(4-(4-(3-hydroxyphenylamino)thieno[3,2-d]pyrimidin-6-yl)benzamido)propanoic acid] | > 30% |  | > 80% |  | > 30% | > 30% | > 80% | > 30% |  |  |  |  |  |  |  | 
